In paper PMC11189555, “Aryl amino acetamides prevent Plasmodium falciparum ring development via targeting the lipid-transfer protein PfSTART1” (Nature Communications, 2024):
Values joined by “and” are separate entries in the source; they are usually repeats but may differ in a detail not shown here. Equal entries are not always repeated. Where two headings read alike, the source gives them in different places.

System: SLI-N309K parasites
Assay: Growth inhibition assay (72 h, LDH activity)
Assay type: cell-based, Plasmodium falciparum
Conditions: for Growth inhibition, (1 - av / DMSO) x 100: Fig 2B source data, per biological replicate; for sample/DMSO: START(N309K), biological replicates 1-4; for EC50: Plasmodium falciparum
Procedure: Parasite growth assays with inhibitory compounds were performed as per[11] and are fully described in the Supplementary Information.
Molecular biology and transfection of P. falciparum: Selection Linked Integration […]
To introduce the PfSTART1 mutations, the second half of the coding sequence of pfstart1 (PF3D7_0104200), was recodonised without introns to the bias of Saccharomyces cerevisiae containing either WT, N309K or N330K mutations, and synthesised as gBlock fragments (Integrated DNA Technologies). The first 819 bp of the 5′ native sequence of pfstart1 was amplified from gDNA, to form the 5’ homology block (5’ HB). The 3′ recodonised gBlock fragment comprising of the last 552 bp of either the WT, N309K or N330K pfstart1 to form the ‘recodon’ block (primers listed in Table S2). The 5’ HB and recodon products were sewn together by overlapping PCR to reconstitute the full coding sequence of pfstart1. These blocks (WT/N309K/N330K) were digested with BglII/PstI, and inserted into the parasite vector p-HA-2A-Neo-glmS
1. This plasmid contains an in -frame haemagglutinin (HA) epitope for protein identification and a P2A peptide (2A) to skip continuous peptide bond synthesis of a downstream neomycin resistance gene ( NeoR).
Parasites containing the transfected DNA were selected using 2.5 nM WR99210 (Jacobus). To select for parasites in which single crossover integration had occurred into the pfstart1 locus, parasites were treated with 400 μg/mL G418 (geniticin, Sigma Aldrich) for 14 days: only parasites that have integrated the construct into their genome expressed the neomycin resistance gene together with the PfSTART1 protein.
Parasite lines were cloned using limiting dilution. These clones were then tested on Western Blot (for correct HA-tagging and protein size), and correct integration and sequence were tested by PCR analysis: PCR on the gDNA was conducted using the primers START_5’UTR.F and START_Seq.R (Table S2). […]
Growth inhibition assays. Synchronised ring-stage parasites (0.3-0.6% parasitemia, 2% haematocrit) were grown for 72 h in a serial-dilution of the compound under […]
and compound 4. Note that M-833 was first purchased from MolPort (MolPort -002-267-916) then made in-house at WEHI: the differences observed in EC50s across experiments are attributed to the different batches of M -833. For some experiments, 0, 0.25 or 2.5 mM of glucosamine (GlcN) was also added. Experiments were set up in technical duplicates or triplicates. Following a freeze -thaw cycle, lactate dehydrogenase (LDH) activity was assessed as an indicator of parasite growt h 5. 30 μL of parasite culture was incubated for 30 min in the dark with 75 μL Malstat mixture (0.1 M Tris pH 9.0, 20 g/L lactic acid, pH 7.5, 0.2% Triton-X100, 0.5 g/L acetylpyridine adenine dinucleotide (APAD, Sigma), 200 μg/mL nitroblue tetrazolium (NBT; Sigma), 1 μg/mL phenozine ethosulfate (PES; Sigma)). Absorbance was then measured at 650 nm, transformed using the formula below, plotted against the logarithm of the concentrations, and a non-linear regression (log(inhibitor) vs. response, variable slope) was calculated using GraphPad Prism to assess the half-inhibitory […]
Growth inhibition % = (1 − average(sample)− average(uRBC)) ∗ 100 […]
The DMSO samples were also used to assess growth of parasite in the presence of 0.25 and 2.5 mM GlcN (normalised by DMSO in 0 mM GlcN).
Egress, invasion & recovery assay. To measure egress, invasion and follow up recovery in the presence of different compounds, we adapted the method developed in6, using Hyp1-Nluc parasites7. These parasites episomally express the exported PEXEL protein Hyp1 (PF3D7_0113300) tagged with a NanoLuc luciferase (NLuc) and were selected with 2.5 nM WR99210 (Jacobus). Highly synchronised schizonts were obtained using ML10 (LifeArc) and sorbitol synchronisation, and Percoll-purified (the culture was gently layered over 67% Percoll (Cytiva) in RPMI, and centrifuged for 15 min at 1500 g and the schizont layer was collected and washed). […]

`Cc1cc(Cl)c(S(=O)(=O)N2CCCC2)cc1OCC(=O)NC1CCCCC1` [M-833] was tested, and the “Growth inhibition, (1 - av / DMSO) x 100” value (SLI-N309K, M-833 conc 0.00304832 (unit not given)) was -28.2579% and -1.2093% and -11.368%, the “Growth inhibition, (1 - av / DMSO) x 100” value (SLI-N309K, M-833 conc 0.00914495 (unit not given)) was -16.5589% and 4.977% and -8.756% and the “Growth inhibition, (1 - av / DMSO) x 100” value (SLI-N309K, M-833 conc 0.0274348 (unit not given)) was -9.0535% and 17.7442% and 3.575%. The “Growth inhibition, (1 - av / DMSO) x 100” value (SLI-N309K, M-833 conc 0.0823045 (unit not given)) was -11.797% and 21.4186% and -2.462%, the “Growth inhibition, (1 - av / DMSO) x 100” value (SLI-N309K, M-833 conc 0.246914 (unit not given)) was -0.0196% and 23.5116% and 10.1477% and the “Growth inhibition, (1 - av / DMSO) x 100” value (SLI-N309K, M-833 conc 0.740741 (unit not given)) was 27.0233% and 58.6744% and 26.0116%. The “Growth inhibition, (1 - av / DMSO) x 100” value (SLI-N309K, M-833 conc 2.22222 (unit not given)) was 70.1744% and 76.5116% and 55.7482%, the “Growth inhibition, (1 - av / DMSO) x 100” value (SLI-N309K, M-833 conc 6.66667 (unit not given)) was 87.2624% and 94.814% and 86.8337% and the “Growth inhibition, (1 - av / DMSO) x 100” value (SLI-N309K, M-833 conc 20 (unit not given)) was 88.5166% and 95.5116% and 93.0422%. For the same molecule, the sample/DMSO (M-833 0.00152416 uM, 0 mM GlcN) was 2.39, the sample/DMSO (M-833 0.00152416 uM, 0.25 mM GlcN) was 4.826 and 2.498 and the sample/DMSO (M-833 0.00152416 uM, 2.5 mM GlcN) was 6.332. For the same molecule, the sample/DMSO (M-833 0.00457247 uM, 0 mM GlcN) was 13.8723 and 0.5123 and 3.546 and -3.543, the sample/DMSO (M-833 0.00457247 uM, 0.25 mM GlcN) was 7.1 and 10.4012 and -2.062 and -3.605 and the sample/DMSO (M-833 0.00457247 uM, 2.5 mM GlcN) was 13.3216 and 19.7117 and 1.5728 and -5.599. For the same molecule, the sample/DMSO (M-833 0.0137174 uM, 0 mM GlcN) was 7.619 and -0.2396 and 1.751 and 10.2857, the sample/DMSO (M-833 0.0137174 uM, 0.25 mM GlcN) was 8.4852 and 5.851 and 4.488 and 5.637 and the sample/DMSO (M-833 0.0137174 uM, 2.5 mM GlcN) was 21.8449 and 8.908 and 5.227 and 1.886. The sample/DMSO (M-833 0.0411523 uM, 0 mM GlcN) was 1.68 and 3.644 and 4.3 and 2.606, the sample/DMSO (M-833 0.0411523 uM, 0.25 mM GlcN) was 17.5682 and 13.2615 and 4.177 and 1.848 and the sample/DMSO (M-833 0.0411523 uM, 2.5 mM GlcN) was 19.1718 and 12.6822 and 8.512 and 8.472. The sample/DMSO (M-833 0.123457 uM, 0 mM GlcN) was 3.306 and 10.0306 and 17.9209 and 10.4229, the sample/DMSO (M-833 0.123457 uM, 0.25 mM GlcN) was 21.665 and 12.0728 and 20.7856 and 13.6953 and the sample/DMSO (M-833 0.123457 uM, 2.5 mM GlcN) was 31.9676 and 15.6301 and 24.5056 and 24.9447. For the same molecule, the sample/DMSO (M-833 0.37037 uM, 0 mM GlcN) was 13.628 and 22.7795 and 30.4444 and 24.0457, the sample/DMSO (M-833 0.37037 uM, 0.25 mM GlcN) was 34.9176 and 21.471 and 31.1561 and 33.3027 and the sample/DMSO (M-833 0.37037 uM, 2.5 mM GlcN) was 40.447 and 24.7651 and 37.6894 and 48.2393. For the same molecule, the sample/DMSO (M-833 1.11111 uM, 0 mM GlcN) was 28.3402 and 44.5509 and 44.7966 and 56.0914, the sample/DMSO (M-833 1.11111 uM, 0.25 mM GlcN) was 53.0252 and 39.9238 and 58.0645 and 67.3975 and the sample/DMSO (M-833 1.11111 uM, 2.5 mM GlcN) was 64.9649 and 41.0107 and 63.8256 and 74.1417. The sample/DMSO (M-833 3.33333 uM, 0 mM GlcN) was 62.0018 and 73.866 and 73.9333 and 81.5771, the sample/DMSO (M-833 3.33333 uM, 0.25 mM GlcN) was 83.0296 and 69.5951 and 81.4805 and 87.3149 and the sample/DMSO (M-833 3.33333 uM, 2.5 mM GlcN) was 83.83 and 68.173 and 80.0856 and 88.1096. The sample/DMSO (M-833 10 uM, 0 mM GlcN) was 89.1663 and 89.2589 and 93.2173 and 92.8571, the sample/DMSO (M-833 10 uM, 0.25 mM GlcN) was 91.9813 and 85.912 and 92.402 and 91.8609 and the sample/DMSO (M-833 10 uM, 2.5 mM GlcN) was 89.5706 and 77.5672 and 88.9441 and 91.41. It also gave an EC50 (72 h, Fig 2B, SLI-N309K, 72 h, n = 3, unit only in x-axis title, read-out: EC50 (95% confidence interval)) of 992 nM, an EC50 (Fig 3C, SLI-N309K, 0 mM GlcN, n = 4, unit on plot axis, read-out: EC50 M-833 (95% confidence interval)) of 1620 nM and an EC50 (Fig 3C, SLI-N309K, 0.25 mM GlcN, n = 4, unit on plot axis, read-out: EC50 M-833 (95% confidence interval)) of 968 nM. For the same molecule, the EC50 (Fig 3C, SLI-N309K, 2.5 mM GlcN, n = 4, unit on plot axis, read-out: EC50 M-833 (95% confidence interval)) was 645 nM, the “fold more resistant than the 3D7 parental parasites” value (SLI-N309K, Fig 2B) was 10 fold and the “fold reduction of EC50 on addition of 2.5 mM GlcN” value (SLI-N309K, not statistically significant) was 2.5 fold.
